Reference: patent US20050080037A1, “Methods for treating acute and overuse sprain and strain using hyaluronic acid” (priority 2003, published 2005)

Tested on: patients with first or second degree lateral ankle sprain
Assay: Efficacy of HA on ankle sprain following periarticular administration (clinical study 1: HA; study 2: celecoxib or naproxen)
Type: in vivo, human
Conditions: for Percentage increase in Patient's Global Assessment (improved by one or more grades) / Mean Patient's Satisfaction Assessment (10 point scale) / Mean Physician's Satisfaction Assessment (10 point scale): study 2, oral BID for 7 days; for Mean VAS Weight-bearing (100 mm): study 2, oral BID for 7 days (celecoxib 200 mg, naproxen 500 mg)
Method: The study was conducted in accordance with good clinical practice and in compliance with the requirement of the International Conference on Harmonization and Declaration of Helsinki. On Day 1 (within 48 hours of the injury), the patients were examined to assess whether they meet all the inclusion criteria and none of the exclusion criteria after signing the informed consent. The inclusion criteria were: 18 years and older, first or second degree lateral ankle […] within 48 hours of administration of study drug, reported moderate (45-60 mm) to severe (>60 mm) ankle pain on full weight bearing on the Patient's Assessment of Ankle Pain using a 100 mm Visual Analogue Scale (VAS). This scale was available for the duration of the clinical follow-up. Patients with bilateral ankle […] injury, third-degree […], or previous ankle […] within 6 months were excluded. Also excluded were patients who had recently used anti-inflammatory drugs, muscle relaxants, or certain classes of psychotropic medications that could confound the results. In addition, patients with sensitivity or allergy to NSAIDs or sulfonamides as well as patients with a history of serious GI, renal, or hepatic disease were excluded. Patients with other rheumatic diseases or a history of drug or alcohol abuse were also excluded. After enrollment, patients received periarticular injections of HA (study 1) or an inhibitor of cyclooxygenase-2 or a NSAID (study 2). […] Eight to ten mg of HA (0.8-1.0 ml of HA) was injected, without anesthetic (study 1). Oral treatments with an inhibitor of cyclooxygenase-2, celecoxib 200 mg BID, or with a NSAID, naproxen 500 mg BID, were done for 7 days (study 2). Clinical assessments were performed at baseline, and then before treatment on Day 4 and Day 8 (end of study). […] In Table 1, 7 patients received HA. In Table 2, 199 patients received celecoxib and 198 patients received naproxen.

SMILES	Percentage increase in Patient's Global Assessment (improved by one or more grades) (at day 4)	Mean VAS Weight-bearing (100 mm) (at day 4)	Mean Patient's Satisfaction Assessment (10 point scale) (at day 8)	Mean Physician's Satisfaction Assessment (10 point scale) (at day 8)	Percentage increase in Patient's Global Assessment (improved by one or more grades) (at day 8)	Mean VAS Weight-bearing (100 mm) (at day 8)
COc1ccc2cc([C@H](C)C(=O)O)ccc2c1 [Naproxen, naproxen]	72%	29.0 mm	8.7	8.6	90%	15.3 mm
Cc1ccc(-c2cc(C(F)(F)F)nn2-c2ccc(S(N)(=O)=O)cc2)cc1 [Celecoxib, celecoxib]	71%	31.9 mm	8.8	8.7	89%	15.0 mm
